# Source: the Kinase Knowledgebase extract (Sharma et al. 2016)
# Target: EGFR (UniProt P00533)
# Sequence (P00533 whole entry, looked up): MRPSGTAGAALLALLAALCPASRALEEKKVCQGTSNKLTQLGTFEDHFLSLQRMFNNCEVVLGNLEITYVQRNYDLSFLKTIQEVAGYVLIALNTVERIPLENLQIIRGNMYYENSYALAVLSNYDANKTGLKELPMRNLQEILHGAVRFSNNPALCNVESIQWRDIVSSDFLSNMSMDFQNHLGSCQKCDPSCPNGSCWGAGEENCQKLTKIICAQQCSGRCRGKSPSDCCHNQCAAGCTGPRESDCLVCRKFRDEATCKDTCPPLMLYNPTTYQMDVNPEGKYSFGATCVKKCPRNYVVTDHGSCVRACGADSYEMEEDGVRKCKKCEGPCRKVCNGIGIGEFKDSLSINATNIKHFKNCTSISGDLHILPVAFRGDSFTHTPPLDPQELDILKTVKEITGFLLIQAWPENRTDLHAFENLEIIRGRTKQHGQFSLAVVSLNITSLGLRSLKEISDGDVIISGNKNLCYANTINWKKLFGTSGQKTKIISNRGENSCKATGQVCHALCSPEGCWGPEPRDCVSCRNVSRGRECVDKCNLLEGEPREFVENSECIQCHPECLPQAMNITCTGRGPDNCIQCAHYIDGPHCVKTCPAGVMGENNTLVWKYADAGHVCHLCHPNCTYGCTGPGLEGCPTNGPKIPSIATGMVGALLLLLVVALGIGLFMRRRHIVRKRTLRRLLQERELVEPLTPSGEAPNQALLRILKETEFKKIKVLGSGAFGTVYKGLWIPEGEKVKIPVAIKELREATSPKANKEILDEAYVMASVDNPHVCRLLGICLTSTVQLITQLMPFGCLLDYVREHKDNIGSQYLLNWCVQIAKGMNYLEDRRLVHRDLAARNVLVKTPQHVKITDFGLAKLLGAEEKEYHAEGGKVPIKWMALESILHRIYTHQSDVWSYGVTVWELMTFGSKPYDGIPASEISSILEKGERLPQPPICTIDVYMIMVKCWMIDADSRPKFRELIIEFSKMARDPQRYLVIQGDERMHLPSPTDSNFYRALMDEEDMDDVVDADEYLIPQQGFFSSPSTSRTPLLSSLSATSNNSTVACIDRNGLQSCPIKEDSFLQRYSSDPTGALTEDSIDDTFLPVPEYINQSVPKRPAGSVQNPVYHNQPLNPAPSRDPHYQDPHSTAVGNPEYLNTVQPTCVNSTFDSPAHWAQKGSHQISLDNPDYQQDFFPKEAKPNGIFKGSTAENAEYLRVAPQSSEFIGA
row,Structure (SMILES),IC50
1,Fc1cccc(COc2ccc(Nc3ncncc3/C=C/c3ccsc3)cc2Cl)c1,< 0.1 µM
2,Fc1cccc(C#Cc2cncnc2Nc2ccc(OCc3cccc(F)c3)c(Cl)c2)c1,≤ 10 µM
3,Fc1cccc(COc2ccc(Nc3ncncc3C#Cc3cccs3)cc2Cl)c1,≤ 10 µM
4,Oc1ccc(C#Cc2cncnc2Nc2ccc(OCc3cccc(F)c3)c(Cl)c2)cc1,≤ 10 µM
5,N#CCCNC(=O)NCc1cccc(C#Cc2cncnc2Nc2ccc(OCc3cccc(F)c3)c(Cl)c2)n1,≤ 10 µM
6,Oc1cccnc1/C=C/c1cncnc1Nc1ccc2c(cnn2Cc2ccccc2)c1,≤ 10 µM
7,Fc1cccc(COc2ccc(Nc3ncncc3C#Cc3cccnc3)cc2Cl)c1,≤ 10 µM
8,O=Cc1cccc(C#Cc2cncnc2Nc2ccc(OCc3cccc(F)c3)c(Cl)c2)c1,≤ 10 µM
9,N#CCCNCc1ccc(C#Cc2cncnc2Nc2ccc(OCc3cccc(F)c3)c(Cl)c2)o1,≤ 10 µM
10,COCc1cccc(C#Cc2cncnc2Nc2ccc(OCc3cccc(F)c3)c(Cl)c2)n1,> 1 µM
11,Fc1cccc(COc2ccc(Nc3ncncc3/C=C/c3cccnc3)cc2Cl)c1,≤ 10 µM
12,CC(=O)Nc1ccc(/C=C/c2cncnc2Nc2ccc(OCc3cccc(F)c3)c(Cl)c2)cn1,≤ 10 µM
13,CS(=O)(=O)CCNCc1cccc(C#Cc2cncnc2Nc2ccc(OCc3cccc(F)c3)c(Cl)c2)c1,≤ 10 µM
14,C(=C\c1cncnc1Nc1ccc(Oc2ccccc2)cc1)/c1ccccc1,≤ 10 µM
15,CN(CCO)C(=O)NCc1cccc(C#Cc2cncnc2Nc2ccc(OCc3cccc(F)c3)c(Cl)c2)n1,≤ 10 µM
16,OCc1nc(C#Cc2cncnc2Nc2ccc(OCc3cccc(F)c3)c(Cl)c2)cs1,≤ 10 µM
17,NCCC(=O)Nc1cccc(C#Cc2cncnc2Nc2ccc(OCc3cccc(F)c3)c(Cl)c2)c1,≤ 10 µM
18,Nc1ncc(/C=C/c2cncnc2Nc2ccc3c(cnn3Cc3ccccc3)c2)cn1,≤ 10 µM
19,Fc1cccc(COc2ccc(Nc3ncncc3/C=C/c3cn[nH]c3)cc2Cl)c1,≤ 10 µM
20,CSc1nccc(C#Cc2cncnc2Nc2ccc(OCc3cccc(F)c3)c(Cl)c2)n1,≤ 10 µM
21,CC(=O)NCc1cccc(C#Cc2cncnc2Nc2ccc(OCc3cccc(F)c3)c(Cl)c2)c1,≤ 10 µM
22,OCc1ccc(C#Cc2cncnc2Nc2ccc(OCc3cccc(F)c3)c(Cl)c2)o1,≤ 10 µM
23,CC(=O)Nc1cccc(C#Cc2cncnc2Nc2ccc3[nH]c(Cc4ccccc4)nc3c2)c1,≤ 10 µM
24,N#CCCNCc1cccc(C#Cc2cncnc2Nc2ccc(OCc3cccc(F)c3)c(Cl)c2)n1,≤ 10 µM
25,Fc1cccc(COc2ccc(Nc3ncncc3C#Cc3ccccc3)cc2Cl)c1,≤ 10 µM

row,Structure (SMILES),IC50
1,CN(C)CCCC(=O)Nc1cccc(C#Cc2cncnc2Nc2ccc(OCc3cccc(F)c3)c(Cl)c2)n1,< 0.1 µM
2,N#Cc1ccc(C#Cc2cncnc2Nc2ccc(OCc3ccc(F)cc3)c(Cl)c2)nc1N,≤ 10 µM
3,CN1CCN(Cc2cccc(C#Cc3cncnc3Nc3ccc(OCc4cccc(F)c4)c(Cl)c3)n2)CC1,≤ 10 µM
4,N#Cc1ccccc1C#Cc1cncnc1Nc1ccc(OCc2cccc(F)c2)c(Cl)c1,≤ 10 µM
5,COCCNCc1cccc(C#Cc2cncnc2Nc2ccc(OCc3cccc(F)c3)c(Cl)c2)n1,≤ 10 µM
6,Fc1cccc(COc2ccc(Nc3ncncc3C#Cc3cccc(CN4CCOCC4)n3)cc2Cl)c1,≤ 10 µM
7,C(=C\c1cncnc1Nc1ccc2c(cnn2Cc2ccccc2)c1)/c1cn[nH]c1,0.1 to 1 µM
8,C(=C\c1cncnc1Nc1ccc2[nH]c(Cc3ccccc3)nc2c1)/c1ccccc1,≤ 10 µM
9,Fc1cccc(COc2ccc(Nc3ncncc3C#Cc3cccc(CN4CCCCC4)n3)cc2Cl)c1,< 0.1 µM
10,O=C(Nc1cccc(C#Cc2cncnc2Nc2ccc(OCc3cccc(F)c3)c(Cl)c2)n1)C(F)(F)Cl,≤ 10 µM
11,CC(=O)Nc1cccc(C#Cc2cncnc2Nc2ccc(OCc3cccc(F)c3)c(Cl)c2)n1,≤ 10 µM
12,C(=C\c1cncnc1Nc1ccc2c(cnn2Cc2ccccc2)c1)/c1ccncc1,≤ 10 µM
13,Fc1cccc(COc2ccc(Nc3ncncc3C#Cc3cccc(CNCCCn4ccnc4)n3)cc2Cl)c1,< 0.1 µM
14,CC(=O)Nc1cccc(/C=C/c2cncnc2Nc2ccc(OCc3cccc(F)c3)c(Cl)c2)c1,< 0.1 µM
15,CC(=O)Nc1cccc(C#Cc2cncnc2Nc2ccc(Oc3ccccc3)cc2)c1,≤ 10 µM
16,COCCNC(=O)NCc1cccc(C#Cc2cncnc2Nc2ccc(OCc3cccc(F)c3)c(Cl)c2)n1,≤ 10 µM
17,Fc1cccc(COc2ccc(Nc3ncncc3C#Cc3cn[nH]c3)cc2Cl)c1,≤ 10 µM
18,Nc1cccc(C#Cc2cncnc2Nc2ccc(OCc3cccc(F)c3)c(Cl)c2)c1,≤ 10 µM
19,Fc1cccc(COc2ccc(Nc3ncncc3C#Cc3cccc(CNCCN4CCOCC4)n3)cc2Cl)c1,0.1 to 1 µM
20,N#Cc1cccc(C#Cc2cncnc2Nc2ccc(OCc3cccc(F)c3)c(Cl)c2)c1,≤ 10 µM
21,CC(C)(C)OC(=O)NCc1cccc(C#Cc2cncnc2Nc2ccc(OCc3cccc(F)c3)c(Cl)c2)c1,≤ 10 µM
22,CS(=O)(=O)CC(=O)Nc1cccc(C#Cc2cncnc2Nc2ccc(OCc3cccc(F)c3)c(Cl)c2)c1,≤ 10 µM
23,CN(CCO)Cc1cccc(C#Cc2cncnc2Nc2ccc(OCc3cccc(F)c3)c(Cl)c2)n1,≤ 10 µM
24,C(=C\c1cncnc1Nc1ccc2sc(Cc3ccccc3)nc2c1)/c1ccsc1,> 1 µM
25,Nc1ccc(C#Cc2cncnc2Nc2ccc(OCc3cccc(F)c3)c(Cl)c2)cc1,≤ 10 µM

row,Structure (SMILES),IC50
1,O=Cc1ccc(C#Cc2cncnc2Nc2ccc(OCc3cccc(F)c3)c(Cl)c2)o1,≤ 10 µM
2,CS(=O)(=O)CCNc1cccc(C#Cc2cncnc2Nc2ccc(OCc3cccc(F)c3)c(Cl)c2)n1,> 1 µM
3,Fc1cccc(COc2ccc(Nc3ncncc3C#Cc3cccc(CN4CCCC4)n3)cc2Cl)c1,≤ 10 µM
4,CC(=O)NCCNCc1cccc(C#Cc2cncnc2Nc2ccc(OCc3cccc(F)c3)c(Cl)c2)n1,≤ 10 µM
5,CSCCC(=O)Nc1cccc(C#Cc2cncnc2Nc2ccc(OCc3cccc(F)c3)c(Cl)c2)c1,≤ 10 µM
6,Fc1cccc(COc2ccc(Nc3ncncc3C#Cc3ccsc3)cc2Cl)c1,≤ 10 µM
7,Fc1cccc(COc2ccc(Nc3ncncc3C#Cc3ncccn3)cc2Cl)c1,≤ 10 µM
8,C(=C\c1cncnc1Nc1ccc2c(cnn2Cc2ccccc2)c1)/c1cccnc1,≤ 10 µM
9,CNCc1cccc(C#Cc2cncnc2Nc2ccc(OCc3cccc(F)c3)c(Cl)c2)n1,≤ 10 µM
10,Nc1ccc(C#Cc2cncnc2Nc2ccc(OCc3cccc(F)c3)c(Cl)c2)cn1,≤ 10 µM
11,Fc1cccc(COc2ccc(Nc3ncncc3C#Cc3cncnc3)cc2Cl)c1,≤ 10 µM
12,CC(=O)Nc1cccc(C#Cc2cncnc2Nc2ccc(OCc3cccc(F)c3)c(Cl)c2)c1,≤ 10 µM
13,COc1cccc(C#Cc2cncnc2Nc2ccc(OCc3cccc(F)c3)c(Cl)c2)n1,≤ 10 µM
14,C(=C\c1cncnc1Nc1ccc2[nH]c(Cc3ccccc3)nc2c1)/c1ccsc1,≤ 10 µM
15,CC(=O)Nc1cccc(C#Cc2cncnc2Nc2ccc(Cc3ccccc3)cc2)c1,≤ 10 µM
16,Fc1cccc(COc2ccc(Nc3ncncc3C#Cc3nccs3)cc2Cl)c1,≤ 10 µM
17,Nc1cccc(C#Cc2cncnc2Nc2ccc(OCc3cccc(F)c3)c(Cl)c2)n1,< 0.1 µM
18,N=C(N)Nc1cccc(C#Cc2cncnc2Nc2ccc(OCc3cccc(F)c3)c(Cl)c2)c1,0.1 to 1 µM
19,Cc1ccc(S(=O)(=O)n2ccc3ccc(C#Cc4cncnc4Nc4ccc(OCc5cccc(F)c5)c(Cl)c4)cc32)cc1,≤ 10 µM
20,CC(=O)Nc1cccc(/C=C/c2cncnc2Nc2ccc3c(cnn3Cc3ccccc3)c2)c1,≤ 10 µM
21,O=C(NCCN1CCOCC1)NCc1cccc(C#Cc2cncnc2Nc2ccc(OCc3cccc(F)c3)c(Cl)c2)n1,< 0.1 µM
22,COc1ccc(/C=C/c2cncnc2Nc2ccc(OCc3cccc(F)c3)c(Cl)c2)cc1OC,< 0.1 µM
23,Nc1ncc(/C=C/c2cncnc2Nc2ccc(OCc3cccc(F)c3)c(Cl)c2)cn1,≤ 10 µM
24,C(#Cc1cncnc1Nc1ccc2c(ccn2Cc2ccccc2)c1)c1ccccc1,≤ 10 µM
25,CS(=O)(=O)CCNCc1ccc(C#Cc2cncnc2Nc2ccc(OCc3cccc(F)c3)c(Cl)c2)o1,≤ 10 µM

row,Structure (SMILES),IC50
1,COC(=O)CCC(=O)Nc1cccc(C#Cc2cncnc2Nc2ccc(OCc3cccc(F)c3)c(Cl)c2)n1,0.1 to 1 µM
2,CNC(=O)c1cccc(/C=C/c2cncnc2Nc2ccc3[nH]c(Cc4ccccc4)nc3c2)c1,≤ 10 µM
3,Fc1cccc(COc2ccc(Nc3ncncc3C#Cc3cccc(CN4CCNCC4)n3)cc2Cl)c1,≤ 10 µM
4,Fc1cccc(COc2ccc(Nc3ncncc3C#Cc3ccc4c(c3)CNCC4)cc2Cl)c1,≤ 10 µM
5,Fc1cccc(COc2ccc(Nc3ncncc3C#Cc3cccc(CNCc4ccccc4)n3)cc2Cl)c1,≤ 10 µM
6,Fc1cccc(COc2ccc(Nc3ncncc3/C=C/c3cccs3)cc2Cl)c1,≤ 10 µM
7,Fc1cccc(COc2ccc(Nc3ncncc3/C=C/c3ccccc3)cc2Cl)c1,< 0.1 µM
8,CC(=O)Nc1cccc(C#Cc2cncnc2Nc2ccc3c(cnn3Cc3ccccc3)c2)c1,≤ 10 µM
9,NCc1cccc(C#Cc2cncnc2Nc2ccc(OCc3cccc(F)c3)c(Cl)c2)n1,≤ 10 µM
10,C(=C\c1cncnc1Nc1ccc2[nH]c(Cc3ccccc3)nc2c1)/c1cn[nH]c1,≤ 10 µM
11,CS(=O)(=O)CCNC(=O)NCc1cccc(C#Cc2cncnc2Nc2ccc(OCc3cccc(F)c3)c(Cl)c2)n1,< 0.1 µM
12,O=Cc1ccccc1C#Cc1cncnc1Nc1ccc(OCc2cccc(F)c2)c(Cl)c1,≤ 10 µM
13,O=C(Nc1cccc(C#Cc2cncnc2Nc2ccc(OCc3cccc(F)c3)c(Cl)c2)n1)C(F)(F)F,< 0.1 µM
14,Fc1cccc(COc2ccc(Nc3ncncc3C#Cc3ccccn3)cc2Cl)c1,≤ 10 µM
15,CNC(=O)NCc1cccc(C#Cc2cncnc2Nc2ccc(OCc3cccc(F)c3)c(Cl)c2)n1,≤ 10 µM
16,CC(=S)Nc1cccc(C#Cc2cncnc2Nc2ccc(OCc3cccc(F)c3)c(Cl)c2)c1,≤ 10 µM
17,Oc1cccnc1/C=C/c1cncnc1Nc1ccc(OCc2cccc(F)c2)c(Cl)c1,≤ 10 µM
18,CN(C)Cc1cccc(C#Cc2cncnc2Nc2ccc(OCc3cccc(F)c3)c(Cl)c2)n1,≤ 10 µM
19,Cn1cncc1C#Cc1cncnc1Nc1ccc(OCc2cccc(F)c2)c(Cl)c1,≤ 10 µM
20,COCCOCC(=O)Nc1cccc(C#Cc2cncnc2Nc2ccc(OCc3cccc(F)c3)c(Cl)c2)c1,≤ 10 µM
21,Fc1cccc(COc2ccc(Nc3ncncc3/C=C/c3ccncc3)cc2Cl)c1,< 0.1 µM
22,CS(=O)(=O)CCNc1nc(C#Cc2cncnc2Nc2ccc(OCc3cccc(F)c3)c(Cl)c2)ncc1C#N,≤ 10 µM
